PMC3274447, “Fermentation, Isolation, Structure, and antidiabetic activity of NFAT-133 produced by Streptomyces strain PM0324667” (AMB Express, 2011)
Where “and” joins values, the source holds several entries; their conditions need not be identical. Identical values can stand only once. Like-named read-outs stand apart in the source and are kept apart here.

What was measured:
[1] = Pharmacokinetic profile in female db/db mice; type: in vivo; settings: for AUC(0-t) / Cmax / Tmax / half-life / AUC(0-inf): mouse, plasma; for AUC(0-inf): read-out: AUC 0-infinity
Source text: Similarly, troglitazone a PPAR-γ […] agonist increases glucose uptake by inducing GLUT4 translocation in L6 skeletal muscles ([Lessard et al. 2006]; [Yonemitsu et al. 2001]). However, these compounds are PPAR-γ agonists, and have several side-effects that cause increased body weight and hepaptoxicity on chronic exposure. […] Prior to planning an efficacy study we determined the pharmacokinetic profile of NFAT-133 (Figure 5, Table 4) using female db/db mice with n = 4 per time point. […] But, since the compound appeared to have a novel mechanism of action, we decided to explore its in vivo efficacy potential by attempting the intraperitoneal route of administration. NFAT-133 administered by the intraperitoneal route achieved plasma concentrations higher than the in vitro EC50 in skeletal muscles.
Figure 5 Pharmacokinetic data of NFAT-133 by oral (A) and intraperitoneal (B) absorption in female db/db mice at 30 mg/kg.

db/db mice = assay: In vivo activity in male db/db mice, 10 days b.i.d.
Experimental: Male db/db mice (7-9 weeks of age) were housed in individually ventilated cages at room temperature of 22°C ± 2°C, humidity at 55 ± 5%, with a 12:12-h light: dark cycle and throughout the study period had access to water and standard chow ad libitum. The guidelines of the Committee for the Purpose of Control and Supervision of Experiments on Animals, Government of India, were followed and the in-house animal ethics committee approved all experimental procedures.
Male db/db mice were divided into three groups of 10 animals each with similar body weight and plasma glucose (mean ± S.E.M.) levels. […] Body weight was measured daily. On day 10, one hour after the last dose, mice were fasted for four hours so as to minimize the variability between the animals. Blood was collected from the fasted mice, plasma was separated by centrifugation (6000 g at 4°C for 7 minutes) and glucose was estimated using a biochemistry auto analyzer (Hitachi Science Systems Limited, Ibaraki, Japan). A small aliquot of separated plasma was stored at -20°C for estimation of insulin using an ELISA assay kit (Linco Research). Immediately after blood sample collection, mice were sacrificed, livers excised and weighed. The data was reproducible in two independent experiments.
All the results are expressed as Mean ± S.E.M. Statistical analysis was done using GraphPad Prism 4 (version 4.03, GraphPad Software, Inc., CA, USA). For comparison between means of more than two groups one-way analysis of variance (ANOVA) followed by Dunnett's post-hoc analysis was employed.

human PPAR-γ = molecular target: T1, human PPAR-γ (Homo sapiens, UniProt P37231); assay: PPAR-γ luciferase assay in transfected CV1 cells; type: cell-based; settings: for % hPPAR-γ activation: relative to 1 μM rosiglitazone = 100%, n = 3
T1 construct: expressed in transfected cells; host or cells: CV1 cells, transient transfection with lipofectamine
T1 sequence (P37231 1-505): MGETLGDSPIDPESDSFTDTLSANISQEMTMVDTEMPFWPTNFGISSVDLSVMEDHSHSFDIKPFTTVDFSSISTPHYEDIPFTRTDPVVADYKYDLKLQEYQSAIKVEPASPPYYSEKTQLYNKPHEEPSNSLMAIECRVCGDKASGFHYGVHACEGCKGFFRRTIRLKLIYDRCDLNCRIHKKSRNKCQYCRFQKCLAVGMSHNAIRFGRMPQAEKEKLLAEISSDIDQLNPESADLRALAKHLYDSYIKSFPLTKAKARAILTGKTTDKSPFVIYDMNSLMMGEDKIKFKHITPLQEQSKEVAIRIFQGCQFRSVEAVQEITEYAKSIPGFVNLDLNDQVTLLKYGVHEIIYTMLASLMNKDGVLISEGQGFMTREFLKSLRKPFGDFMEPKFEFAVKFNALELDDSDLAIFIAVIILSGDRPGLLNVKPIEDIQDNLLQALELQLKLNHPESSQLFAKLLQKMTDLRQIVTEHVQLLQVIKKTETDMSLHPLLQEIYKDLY
Experimental: PPAR-γ activation is one of the key mechanisms involved in glucose uptake. […] CV1 cells were seeded onto 24 well plates and transient transfections were conducted after over-night incubation using lipofectamine (Invitrogen, CA, USA). Five hours after transfection, the cells were treated with each compound concentration for an additional 24 h, and the luciferase assay (Promega) was performed according to the manufacture's protocol. Luminescence was measured using the Safire2 reader. […] The entire assay was performed in triplicates.

[2] = tested on: transcription factor - NFAT; set-up: method as in Burres et al.1995; settings: Jurkat T-cells; ref Burres et al.1995; cited from earlier work
[3] = tested on: L6 rat skeletal muscle cells; assay: Glucose uptake (14C-2-deoxyglucose) in insulin-sensitized differentiated L6 myotubes; type: cell-based; settings: for EC50: Rattus norvegicus, differentiated L6 myotubes in presence of insulin
Experimental: The metabolite extract library samples were screened for the ability to induce glucose uptake in insulin stimulated differentiated L6 myotubes. The L6 rat skeletal muscle cells were seeded into 96 well cell culture plates in complete medium (α-MEM + 10% fetal bovine serum + 1% penicillin-streptomycin solution) and maintained at 5% carbon dioxide (CO2) atmosphere. After 48 h, the medium was switched to α-MEM with 2% (v/v) fetal bovine serum (FBS) in order to initiate differentiation. Media change was ensured every 48 h. Compound treatment was conducted once the myoblasts differentiated to form myotubes. The differentiated and fused myotubes were starved in serum free α-MEM for 4 h, treated with samples and further incubated for 24 h. Following treatment and incubation, the cells were sensitized with insulin (200 nM) and incubated for 25 minutes. Radioactive glucose pulsing was done at 0.06 μCi/ml for 10 minutes. The reaction was terminated with cold KRPH buffer. The cell-associated radioactivity was determined by lysing the cells with Microscint PS™ followed by liquid scintillation counting ([Huang et al. 2002]). The assay was performed in triplicate.
For all experiments, the L6 myoblasts obtained from ATCC were used only up to passage seven and were utilized within two months post revival of a new vial.

[4] = tested on: splenocytes derived from Balb/c and C57BL/6 mice; set-up: method as in Burres et al.1995; settings: splenocytes from Balb/c and C57BL/6 mice in vitro; ref Burres et al.1995; cited from earlier work
[5] = 100 mg/kg i.p. b.i.d. 10 days, P < 0.001 vs. vehicle

## CC(=O)C(C)C(O)C(C)c1ccc(C)cc1/C=C\CO (stereo not shown) [NFAT-133]
[1]
  oral bioavailability: poor oral bioavailability
[1]; 30 mg/kg IP
  AUC(0-t): 3220 ng·h/mL
  Cmax: 11700 ng/mL and 42.2 µM
  Tmax: 4.8 min
  half-life: 112 min
  AUC(0-inf): 3550 ng·h/mL
[1]; 30 mg/kg oral
  AUC(0-t): 630 ng·h/mL
  Cmax: 3410 ng/mL and 12.3 µM
  Tmax: 4.8 min
  half-life: 9.6 min
  AUC(0-inf): 650 ng·h/mL
db/db mice; [5]
  plasma glucose levels as compared to vehicle treated animals: significant reduction
  plasma insulin levels as compared to vehicle treated animals: significant reduction
db/db mice; 100 mg/kg ip b.i.d. 10 days
  liver weight: 2.0 ± 0.1 g
db/db mice; 100 mg/kg ip b.i.d. 10 days, Mean ± S.E.M., n = 10
  % Change in body weight: -1.08 ± 1.21% and -1.1 ± 1.2 %
db/db mice; 100 mg/kg ip b.i.d. 10 days, Mean ± S.E.M., n = 10, the values are: liver weight
  liver weight: 2 ± 0.1 g
Human PPAR-γ; 30 μM
  % hPPAR-γ activation: 0.2%
Human PPAR-γ; 100 μM
  % hPPAR-γ activation: 9.0%
Human PPAR-γ; concentrations as high as 100 μM
  PPAR-γ activity: does not induce PPAR-γ activity
[2]
  activation of the transcription factor NFAT: inhibit the activation
[3]
  EC50: 6.3 ± 1.8 µM
[4]
  proliferation of splenocytes: block proliferation

## CN(CCOc1ccc(CC2SC(=O)NC2=O)cc1)c1ccccn1 (stereo not shown) [Rosiglitazone, rosiglitazone, reference compound]
db/db mice; 5 mg/kg po b.i.d. 10 days
  liver weight: 2.7 ± 0.1 g
db/db mice; 5 mg/kg po b.i.d. 10 days, Mean ± S.E.M., n = 10
  % Change in body weight: 14.6 ± 0.8 %
db/db mice; 5 mg/kg po b.i.d. 10 days, Mean ± S.E.M., n = 10, listed as rosiglitazone
  % Change in body weight: 14.63 ± 0.85%
db/db mice; 5 mg/kg po b.i.d. 10 days, Mean ± S.E.M., n = 10, the values are: liver weight
  liver weight: 2.6 ± 0.1 g
[3]; 4 μg/ml
  Inference (glucose uptake activity): Active
[3]
  EC50: 6.9 ± 1.8 µM
